{"source": "patent US6995281B2", "about": "“Methods for selectively removing counterions from compounds and compounds derived from such methods” (Pfizer, Inc., priority 2003, dated 2006)", "assay_type_in_all_cases": "physicochemical", "key": {"[1]": {"experiment": "HPLC analysis after removal of excess HCl with anion exchange resin (Example 4)", "conditions": "pH raised from 1.04 to 2.5 with Amberlite 400 (OH) resin", "description": "To 3.3 g of sample containing around 305 mg/ml S-[2-[(1-Iminoethyl)amino]ethyl]-2-methyl-L-cysteine dihydrochloride and around 0.2 eq excess HCl, was added 16.7 g of deioinized water. The pH was 1.04. To 14 ml of this solution, prewashed Amberlite 400 (OH) resin was added to obtain a ph of 2.5. The anion exchange treatment lightened the color of the solution from light yellow to water white. The resin was removed by filtration and the starting material and filtrate product were analyzed by chloride titration and HPLC."}, "[2]": {"experiment": "Pseudo-titration in water with IRA-400(OH) anion exchange resin, samples assayed by HPLC (Example 3)", "conditions": "not a true titration curve", "description": "60 g of Amberlite IRA400 (OH) resin (a strongly anionic quaternary ammonium polystyrene resin, about 16–50 mesh, available from Rohm & Haas, Philadelphia, Pa.,) was prewashed with 4.7 percent (by weight) ammonium hydroxide (50 ml of 28 percent ammonium hydroxide, 250 ml deionized water), followed by extensive washing with deionized water. The final conductivity was 6.1 μS.\nSamples containing about 0.9 g of S-[2-[(1-Iminoethyl)amino]ethyl]-2-methyl-L-cysteine di-hydrochloride in 142 ml HCl/water solution, were concentrated on a rotary evaporator at 60° C. to an oil. To the oil, diluted to 60 ml with deionized water, was added aliquots of 0.5 g of washed anion exchange resin while stirring. At five minutes after each aliquot of resin was added, the solution pH was measured and a sample removed through a syringe filter. A total of 9 g of anion exchange resin was added. The final pH was 10.8. The resin was removed by filtration and the filtrate was concentrated to an oil by rotary evaporation at 60° C.; no solids formed. The starting material, final filtrate and all intermediate samples were assayed by HPLC and ion chromatography for chloride.\nThe diamond (solid line) is pH and square (dashed line) is S-[2-[(1-Iminoethyl)amino]ethyl]-2-methyl-L-cysteine (percent initial, by ion chromatography). […] The diamond (solid line) is pH and triangle (broken line) is chloride (by ion chromatography).\nThese curves are not true titration curves since samples were withdrawn during the progress of the reaction, and since true equilibrium was not attained before the increments of resin were added. Nevertheless, the graphs of FIG. 2 and FIG. 3 illustrate the expected trends. As resin is added to the S-[2-[(1-Iminoethyl)amino]ethyl]-2-methyl-L-cysteine solution the pH rises with change in slope around pH's of 2, 9 and 11. The pH's of slower rise are representative of the pK's of the carboxylic acid, amine and amidine functional groups, respectively. Above a pH of 10, the S-[2-[(1-Iminoethyl)amino]ethyl]-2-methyl-L-cysteine concentration in solution decreases. […]"}, "[3]": {"experiment": "Stability of free zwitterion samples at different pH by ion pairing gradient HPLC (Example 6, Table 2)", "conditions": "summary of Table 2", "description": "Amberlite IRA400 (Cl) resin was rinsed with 3M HCl, water, and then 3M NaOH. Aliquots were 100 ml per 10 g of resin. This procedure was repeated 3 times in order to clean the resin and in order to generate the OH form. A final rinse with water was carried out until the conductivity of the eluting water was 2 μS. The resin was then used to titrate 40 ml of a 50 mg/ml solution of S-[2-[(1-Iminoethyl)amino]ethyl]-2-methyl-L-cysteine dihydrochloride. The concentration is expressed in terms of zwitterion equivalents. Aliquots were taken throughout the titration, filtered and analyzed by HPLC. Subsamples of the aliquots were saved for a second HPLC analysis 1 week after the titration was performed in order to assess the stability of the samples. Additional aliquots were taken for Cl analysis using an ion selective electrode. The pH was also monitored throughout the titration. HPLC analyses were performed using an ion pairing gradient method. […] HPLC Method • Pump A: 20 mM KH2PO4, 10 mM Pentane sulfonic acid, adjusted to pH=3 with phosphoric acid • Pump B: Acetonitrile • Gradient: 0% B at 0 min, 26% B at 15 min, 0% B at 15.1 min • Column: YMC ODS-AQ 120 A, 5 μm, 2.6×150 mm • Wavelength=205 nm"}}, "note": "Counter-ions that a name gives are not always drawn."}
{"smiles": "CC(=N)NCCSC[C@](C)(N)C(=O)O", "note": "[Example 1, S-[2-[(1-Iminoethyl)amino]ethyl]-2-methyl-L-cysteine, dihydrochloride]", "values": [{"measurement": "Qualitative HPLC analysis of starting material and product", "setting": "[1]", "result": "no new peaks and no increase in impurities"}]}
{"smiles": "CC(=N)NCCSC[C@](C)(N)C(=O)O", "note": "[S-[2-[(1-Iminoethyl)amino]ethyl]-2-methyl-L-cysteine]", "values": [{"measurement": "pH of slower rise representative of the pK of the amidine group", "setting": "[2]", "result": "~11"}, {"measurement": "pH of slower rise representative of the pK of the amine group", "setting": "[2]", "result": "~9"}, {"measurement": "pH of slower rise representative of the pK of the carboxylic acid group", "setting": "[2]", "result": "~2"}, {"measurement": "Degradation when made basic (HPLC)", "setting": "[3]", "result": "degradation is not immediate but instead occurs over a period of days"}]}
